B1: TTTGGCACTGGTAGAACTCCCAATCTTCCTGTCAGAGTGTGAGTTCTACCATTGCCAAATTTTT (nucleic acid)
antisense: TTTGGCACTGGTAGAACTCCCAATCTTCCTGTCAGAGTGTGAGTTCTACCATTGCCAAATTTTT
modifications: listed as DNA, chemistry not fully specified
notes: control antagomir to the randomly chosen miR-182

Columns and labels:
FL5-12 lymphocytes = assay: IL3 depletion competition assay for cytokine-independent survival of FL5-12 lymphocytes; assay type: cell-based, murine; conditions: for IL-3 independence of FL5-12 cells: retest of individual miRNAs from secondary library screen
Description: An established in vitro assay of hematopoietic transformation (Plas, Talapatra, Edinger, Rathmell, & Thompson, 2001) was used to identify the key oncogenic activities within the 17˜92 cluster and its paralogues. All miRNAs representing families of unique seed sequences, specifically miR-17, miR-18a, miR-19b-1 (miR-19), miR-20a, miR-106a, miR-106b and miR-25 were tested (FIG. 1a). The assay is based on the IL3 dependence of FL5-12 lymphocytes, which undergo apoptosis when removed from IL3. In competition experiments, FL5-12 cells were partially transduced with GFP plus individual miRNAs or empty vector and these mixed populations were monitored by fluorescence-activated cell sorting (FACS) for changes in their relative proportions (FIG. 1b).
FL5-12 murine lymphocytes, IL3 depletion studies and viral transductions were as described (Mavrakis, et al., 2008) (Plas, Talapatra, Edinger, Rathmell, & Thompson, 2001). Cell cycle and cell death assays based on uptake of DNA staining dye (LDS751) using Cell cycle and Viacount assays from Guava Technologies were performed as reported (Mavrakis, et al., 2008). The retroviral vectors are based on murine stem cell virus (MSCV) and include the miRNA expression vectors encoding miRs 17, 18a, 19b-1 (miR-19), 106a, 106b, 25 (He, et al., 2005), the vectors encoding Notch-ICN (a gift from W. Pear) (Pear, et al., 1996) and Bcl2 (Wendel, et al., 2004), the individual shRNA vectors (FIG. 17) and the library vector (MRP) (FIGS. 18a and b). miRNA inhibitor oligonucleotides (antagomirs) MZIP19a-PA-1, MZIP19b-PA-1, and scrambled control (MZIP000-PA-1) were from System Biosciences.
The primary screen is based on c-MYC-induced apoptosis in MEFs (Evan, et al., 1992). MEFs were transduced with c-MYC and the miRNA library and cultured in puromycin to select for homogeneous c-MYC expression; apoptosis was triggered by diluting serum from 10% to 0.1%. Surviving cells remained adherent and were collected for DNA isolation, PCR amplification of the integrated miRNA library constructs, sub-cloning into pGEM-T vector, bacterial transformation, and sequence identification of ˜100 colonies. A secondary library was constructed by sub-cloning all miRNAs from the primary screen into an MSCV construct. The secondary screen is based on the IL-3 dependence of FL5-12 lymphocytes in vitro (Mavrakis, et al., 2010), (Plas, Talapatra, Edinger, Rathmell, & Thompson, 2001). FL5-12 cells were partially transduced with the pooled, GFP-tagged library and selected by IL-3 depletion. miRNAs were identified as above. Individual miRNAs were subsequently validated in the same FL5-12 assay and in vivo.

[1] = test system: PTEN, BCL2L11, PHF6, IKZF1, NF1, FBXW7; assay: 3′UTR reporter, quantitative PCR and immunoblot assays of tumor suppressor genes in murine leukemias; assay type: cell-based; conditions: murine T-ALLs expressing NOTCH1 and miRNA, mRNA, protein
Description: Immunoblots of whole cell lysates were performed as described (Wendel, et al., 2004). Antibodies were against Bim/Bcl2l11 (AAP-330, 1:1000, Assay Designs), Nf1 (sc67, 1:100, Santa Cruz), Cdc4/Fbxw7 (ab7405, 1:500, Abeam), Ikzf1 (sc-13039, 1:500, Santa Cruz), Phf6 (NB100-79861, 1:1000, Novus Biologicals), Pten (9559, 1:1000, Cell Signaling), tubulin (1:5000; Sigma, B-5-1-2) and actin (1:5000; Sigma, AC-15).
(§1) Total RNA and miRNA-enriched RNA was extracted using the Allprep DNA/RNA/Protein and miRNeasy Mini kits. Pathological diagnosis was by expert hematopathologists at Weill Cornell Medical Center. cDNA synthesis, PCR and analysis by the ΔΔ Ct method were as described (Mavrakis, et al., 2008) and utilized Taqman Gene Expression Assays: Bcl2l11 (Mm00437796_m1), BCL2L11 (Hs00197982_m1), Pten (Mm01212532_m1), PTEN (Hs02621230_s1), Nf1 (Mm00812430_m1), NF1 (Hs01035104_m1), Ikzf1 (Mm01187878_m1), IKZF1 (Hs00172991_m1), Fbxw7 (Mm00504452_m1), FBXW7 (Hs00217794_m1), Phf6 (Mm00804415_m1), and Mouse GAPD (GAPDH) (4352932, Applied Biosystems). Expression was normalized to RNU6B (001093, Applied Biosystems).
The mouse FBXW7 (bp 2793-4139; acc. no. NM_001177773), human NF1 (bp 10033-10666; acc. no NM_000267), human PHF6 (bp position 3271-4299; acc. no. NM_001015877) and Bim (bp. 3155-4773; acc. no. NM_009754) 3′UTR fragments were generated by PCR and cloned into the psi-CHECK-2 vector (Promega) with the exception of the IKZF1 3′UTR, which was purchased from Genecopoeia (cat no. HmiT000397b, by 2343-4471 of UTR). The assays were performed as described (Xiao, et al., 2008).

T-ALL1 cells [2] = assay: Cell number during in vitro culture of T-ALL1 cells expressing antagomirs; assay type: cell-based, human; conditions: T-ALL1, 6 d culture
Description: (§2) Given the pleiotropic and partially overlapping pattern of tumor suppressor gene regulation by multiple miRNAs, the effect of miRNA antagomirs on the growth rate and viability of two human T-ALL cell lines, T-ALL1 and Koptk1, were assessed. The human T-ALL1 cell line expresses high levels of miR-19a, miR-19b, miR-26a and miR-92 but only low levels of other miRNAs, e.g. miR-148a and the randomly chosen miR-182 (FIG. 27b inset). […] Results in the Koptk1 cell line were analogous to those in the T-ALL1 cell line (FIG. 28).
(§3) FL5-12 murine pro B-lymphocytes, cell cycle and apoptosis studies and viral transductions were as described (Mavrakis, et al., 2008), (Plas, Talapatra, Edinger, Rathmell, & Thompson, 2001). T-ALL cell lines, including Jurkat, were cultured in RPMI 1640 medium supplemented with 10-20% fetal calf serum, 100 U/ml penicillin G and 100 μg/ml streptomycin at 37° C. in a humidified atmosphere under 5% CO2. All vectors are based on murine stem cell virus (MSCV) and include the miRNA expression vector encoding all miRNAs described (He, et al., 2005), NOTCH1-ICN (Pear, et al., 1996) and the individual shRNA vectors (protein knockdown by shRNAs; FIG. 10). The miRNA pooled library (He, et al., 2005) is a generous gift from G. J. Hannon and has been expanded by PCR cloning to contain ˜300 miRNAs. The antagomirs MZIP19a-PA-1, MZIP19b-PA-1, MZIP26a-PA-1, MZIP92a-PA-1, MZIP148a-PA-1, MZIP182-PA1, MZIP223-PA-1 and scrambled control (MZIP000-PA-1) were from System Biosciences.

T-ALL1 cells [3] = assay: Viability of T-ALL1 cells transduced with antagomirs; assay type: cell-based, human
Description: as §2, §3

PTEN and BCL2L11 = assay: Quantitative RT-PCR of BCL2L11 and PTEN mRNA in T-ALL1 cells; assay type: cell-based, human
Text: as §1

Row | Molecule | IL-3 independence of FL5-12 cells (FL5-12 lymphocytes) | regulation of tumor suppressor genes [1] | enrichment of cells co-expressing miR-19/GFP following IL3 depletion (FL5-12 lymphocytes; treated with 1 μM metformin to activate AMP-kinase) | growth rate (T-ALL1 cells [2]) | cell viability (T-ALL1 cells [3]) | expression of PTEN and BCL2L11 (PTEN and BCL2L11)
1 | miR-223: miRNA, UGUCAGUUUGUCAAAUACCCCA (SEQ ID NO: 10) (expressed or natural sequence; listed as Homo sapiens) | confirmed to confer IL-3 independence on FL5-12 cells | strongly regulates FBXW7 reporter activity and protein levels | – | – | – | –
2 | miR-92: miRNA, UAUUGCACUUGUCCCGGCCUGU (SEQ ID NO: 6) (expressed or natural sequence; listed as Homo sapiens) | – | affects IKZF1 and FBWX7 but does not target the murine NF1 | – | – | – | –
3 | CN(C)C(=N)N=C(N)N [metformin, reference compound] | – | – | Neither the other cDNAs nor metformin treatment abrogated miR-19's protective function | – | – | –
4 | miR-26: miRNA, UUCAAGUAAUCCAGGAUAGGCU (SEQ ID NO: 5) (expressed or natural sequence; listed as Homo sapiens) | confirmed to confer IL-3 independence on FL5-12 cells | reduce levels of PTEN and PHF6 protein and mRNA in leukemic cells | – | – | – | –
5 | TCAGTGCGCTACAGAACGTTATCTTCCTGTCAGACAAAGTTCTGTAGTGCACTGATTTTT (listed as DNA, chemistry not fully specified) [antagomir against miR-148a, antagomir to miR148, miRZIP from System Biosciences] | – | – | – | no significant (p>0.05) effect | no significant (p>0.05) effect | no significant (p>0.05) effect
6 | miR-20a: miRNA, UAAAGUGCUUAUAGUGCAGGUAG (SEQ ID NO: 3) (expressed or natural sequence; listed as Homo sapiens) | – | reduce levels of PTEN and PHF6 protein and mRNA in leukemic cells | – | – | – | –
7 | TTCAAGTGATCCAGGATCGGATCTTCCTGTCAGAGCCTATCCTGGATTACTTGAATTTTT (listed as DNA, chemistry not fully specified) [antagomir against miR-26a, antagomir to miR26a, miRZIP from System Biosciences] | – | – | – | reduce growth rate | significantly decrease cell viability | de-repress the tumor suppressor genes PTEN and BCL2L11
8 | TATTGCAATTGTCCCGGACTATCTTCCTGTCAGACAGGCCGGGACAAGTGCAATATTTTT (listed as DNA, chemistry not fully specified) [antagomir against miR-92, antagomir to miR92a, miRZIP from System Biosciences] | – | – | – | reduce growth rate | significantly decrease cell viability | de-repress the tumor suppressor genes PTEN and BCL2L11
9 | B1 | – | – | – | no significant (p>0.05) effect | no significant (p>0.05) effect | no significant (p>0.05) effect
